Assay results: US12157755B2, “CD73 inhibitor, preparation method therefor and application thereof” (Abbisko Therapeutics Co., Ltd., priority 2019, dated 2024)

Experiments:
CD73 = target: T1, CD73 (Homo sapiens, UniProt P21589); assay: In vitro enzymatic activity against CD73 (malachite green test using soluble CD73); type: biochemical; details: soluble CD73 36 ng/mL, 50 μM AMP, 30 minutes at 25° C.
T1 construct: purchased R&D systems 5795-EN-010
T1 sequence (P21589 27-547 limits assumed): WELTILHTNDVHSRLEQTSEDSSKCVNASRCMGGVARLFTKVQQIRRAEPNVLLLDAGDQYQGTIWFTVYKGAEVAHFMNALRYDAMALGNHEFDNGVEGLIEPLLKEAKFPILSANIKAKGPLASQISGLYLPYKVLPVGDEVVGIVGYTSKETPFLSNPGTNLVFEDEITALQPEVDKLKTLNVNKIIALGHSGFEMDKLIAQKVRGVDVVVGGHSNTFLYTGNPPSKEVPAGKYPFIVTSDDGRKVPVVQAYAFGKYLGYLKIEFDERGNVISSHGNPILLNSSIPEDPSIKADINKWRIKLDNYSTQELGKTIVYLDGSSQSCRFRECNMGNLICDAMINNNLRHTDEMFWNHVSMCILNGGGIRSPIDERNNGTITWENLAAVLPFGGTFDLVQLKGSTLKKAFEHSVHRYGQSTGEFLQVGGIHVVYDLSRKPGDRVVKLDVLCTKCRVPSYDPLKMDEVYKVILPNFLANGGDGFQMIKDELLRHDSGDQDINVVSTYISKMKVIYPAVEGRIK
Outline: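 Soluble recombinant CD73 (36 ng/mL) incubated with compound and 50 μM AMP for 30 min at 25 °C in 25 mM Tris pH 7.5, 5 mM MgCl2, 0.005% Tween-20. Released inorganic phosphate read by malachite green; IC50 from non-linear regression of % inhibition.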

[1] = target: T2, CD73 enzymatic activity expressed on the cell surface of MDA-MB-231 cells (Homo sapiens, UniProt P21589); assay: Inhibition of CD73 enzymatic activity on the cell surface (Cell Titer Glo (CTG) experiment), MDA-MB-231 cells; type: cell-based; details: MDA-MB-231 cells endogenously expressing CD73, AMP, 37° C. for 2 hours, CTG readout; read-out: Cellular activity IC50
T2 construct: Human breast cancer cells MDA-MB-231 that endogenously express CD73 were used; host or cells: MDA-MB-231
T2 sequence (P21589 27-549): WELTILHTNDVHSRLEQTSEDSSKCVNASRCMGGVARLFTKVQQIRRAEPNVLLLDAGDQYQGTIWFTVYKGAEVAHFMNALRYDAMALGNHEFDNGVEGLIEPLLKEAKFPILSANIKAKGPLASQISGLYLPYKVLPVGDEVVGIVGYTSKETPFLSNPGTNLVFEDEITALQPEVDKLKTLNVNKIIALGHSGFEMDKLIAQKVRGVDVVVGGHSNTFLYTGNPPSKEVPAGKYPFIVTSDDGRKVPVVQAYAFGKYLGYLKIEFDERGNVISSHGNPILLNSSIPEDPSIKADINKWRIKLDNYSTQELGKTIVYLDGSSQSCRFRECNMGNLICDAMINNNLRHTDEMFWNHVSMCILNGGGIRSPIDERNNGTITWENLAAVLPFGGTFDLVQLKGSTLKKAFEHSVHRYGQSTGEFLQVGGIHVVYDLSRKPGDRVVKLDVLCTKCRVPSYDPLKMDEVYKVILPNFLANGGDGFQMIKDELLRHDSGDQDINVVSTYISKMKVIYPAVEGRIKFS
Outline: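 MDA-MB-231 cells with endogenous CD73 were washed serum-free, preincubated with compound for 15 min, then given AMP (1.2 mM stock) for 2 h at 37° C. Remaining AMP in the supernatant was read by CellTiter-Glo with added ATP. IC50 came from a four-parameter logistic fit.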

Row | IC50 (CD73) [nM] | IC50 [1] [nM] | SMILES
1 | 0.26 | 0.26 | O=P(O)(O)CP(=O)(O)OC[C@H]1O[C@@H](n2ncc3c(N[C@H]4CCc5ccccc54)cc(Cl)nc32)[C@H](O)[C@@H]1O [Example 12, (((((2R,3S,4R,5R)-5-(6-chloro-4-(((S)-2,3-dihydro-1H-inden-1-yl)amino)-1H-pyrazolo[3,4-b]pyridin-1-yl)-3,4-dihydroxytetrahydrofuran-2-yl)methoxy)(hydroxy)phosphoryl)methyl)phosphonic acid]
2 | 0.42 | 0.13 | O=P(O)(O)CP(=O)(O)OC[C@H]1O[C@@H](n2ncc3c(N[C@@H]4CCc5ccccc54)cc(Cl)nc32)[C@H](O)[C@@H]1O [Example 13, (((((2R,3S,4R,5R)-5-(6-chloro-4-(((R)-2,3-dihydro-1H-inden-1-yl)amino)-1H-pyrazolo[3,4-b]pyridin-1-yl)-3,4-dihydroxytetrahydrofuran-2-yl)methoxy)(hydroxy)phosphoryl)methyl)phosphonic acid]
